{"source": "paper PMC3191281", "about": "(2011)", "molecular_target": "T1, CK1α (casein kinase Iα) (Homo sapiens, UniProt P48729)", "T1 sequence (P48729 2-337)": "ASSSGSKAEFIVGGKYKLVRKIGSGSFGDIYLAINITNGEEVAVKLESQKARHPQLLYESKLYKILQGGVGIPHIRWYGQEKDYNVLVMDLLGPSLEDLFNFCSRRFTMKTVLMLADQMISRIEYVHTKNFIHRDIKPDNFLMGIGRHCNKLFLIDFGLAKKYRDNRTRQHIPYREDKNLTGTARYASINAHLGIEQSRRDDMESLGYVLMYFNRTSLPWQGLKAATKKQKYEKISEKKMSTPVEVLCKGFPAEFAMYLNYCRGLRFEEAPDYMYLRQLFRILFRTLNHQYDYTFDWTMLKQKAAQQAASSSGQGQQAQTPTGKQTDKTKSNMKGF", "assay": "TR-FRET", "assay_type": "biochemical", "data": [{"smiles": "CCCCCc1cc(/C=C2/N=C(c3ccc[nH]3)C=C2OC)[nH]c1C", "note": "[NSC 47147]", "values": [{"measurement": "IC50", "result": 6, "unit": "µM"}]}]}
